Results reported in paper PMC4546552 (ACS chemical biology, 2015).
Like-named read-outs stand apart in the source and are kept apart here. Blank lines part the entries; values can stand above or below the compound they belong to.

How the values were obtained:
[1] = target: T1, rat NAAA (r-NAAA) (Rattus norvegicus, UniProt Q5KTC7); details: cited from earlier work
T1 sequence (Q5KTC7 131-362 limits assumed): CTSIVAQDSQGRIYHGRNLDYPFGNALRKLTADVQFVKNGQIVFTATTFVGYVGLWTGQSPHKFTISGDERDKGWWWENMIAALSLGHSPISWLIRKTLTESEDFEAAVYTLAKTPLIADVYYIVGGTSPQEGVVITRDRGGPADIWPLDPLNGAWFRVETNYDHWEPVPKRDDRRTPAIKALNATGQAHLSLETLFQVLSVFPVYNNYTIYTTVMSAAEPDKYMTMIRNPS
T1 sequence (Q5KTC7 34-130 limits assumed): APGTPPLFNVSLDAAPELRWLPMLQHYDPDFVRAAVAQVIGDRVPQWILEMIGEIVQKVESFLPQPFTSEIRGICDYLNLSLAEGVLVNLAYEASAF

[2] = target: T2, human NAAA (h-NAAA) (Homo sapiens, UniProt Q02083); details: read-out: IC50 for human NAAA (h-NAAA); cited from earlier work
T2 sequence (Q02083 29-359): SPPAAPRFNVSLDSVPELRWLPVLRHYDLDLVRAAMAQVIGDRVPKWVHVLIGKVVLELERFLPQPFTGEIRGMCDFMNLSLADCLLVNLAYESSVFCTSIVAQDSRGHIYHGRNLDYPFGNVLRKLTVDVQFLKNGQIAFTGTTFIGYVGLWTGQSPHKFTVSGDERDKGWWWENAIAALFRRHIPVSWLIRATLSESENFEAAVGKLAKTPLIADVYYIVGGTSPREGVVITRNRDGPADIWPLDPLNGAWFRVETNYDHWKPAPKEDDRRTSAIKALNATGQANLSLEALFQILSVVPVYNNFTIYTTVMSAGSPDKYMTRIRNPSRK

[3] = cited from earlier work
[4] = tested on: rodent models; details: cited from earlier work
[5] = Stability in rat liver microsomes; assay type: in vitro ADME
[6] = Stability in mouse liver microsomes; assay type: in vitro ADME
[7] = target: T3, rat FAAH (Rattus norvegicus, UniProt P97612); assay: Rat FAAH inhibition; assay type: biochemical
T3 sequence (P97612 1-579): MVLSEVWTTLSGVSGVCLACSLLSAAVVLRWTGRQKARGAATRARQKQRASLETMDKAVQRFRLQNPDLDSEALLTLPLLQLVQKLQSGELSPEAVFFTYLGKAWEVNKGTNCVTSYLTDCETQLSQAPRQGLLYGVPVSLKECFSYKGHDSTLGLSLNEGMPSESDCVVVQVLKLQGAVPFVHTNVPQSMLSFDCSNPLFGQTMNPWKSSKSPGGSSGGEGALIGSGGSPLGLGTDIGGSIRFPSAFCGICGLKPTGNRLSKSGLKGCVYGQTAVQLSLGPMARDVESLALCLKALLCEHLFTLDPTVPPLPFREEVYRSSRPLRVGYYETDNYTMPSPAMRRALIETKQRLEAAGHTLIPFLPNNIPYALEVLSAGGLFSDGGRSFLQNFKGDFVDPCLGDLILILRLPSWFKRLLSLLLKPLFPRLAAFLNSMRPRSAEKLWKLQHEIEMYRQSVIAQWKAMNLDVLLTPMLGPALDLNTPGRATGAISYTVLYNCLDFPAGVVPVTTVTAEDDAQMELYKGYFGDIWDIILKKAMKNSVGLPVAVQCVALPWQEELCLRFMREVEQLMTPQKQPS

[8] = tested on: panel of 28 biologically relevant targets comprising lipid-metabolizing and inflammation-related enzymes; assay: CEREP selectivity panel, enzymes; assay type: biochemical; details: 10 μM
[9] = tested on: 79 commonly targeted ion channels, membrane transporters and receptors; assay: CEREP selectivity panel, channels, transporters, receptors; assay type: binding; details: 10 μM
[10] = Pharmacokinetic analyses in mice, intravenous; assay type: in vivo; details: mouse, plasma, 3 mg/kg
[11] = target: T4, r-NAAA (Rattus norvegicus, UniProt Q5KTC7); assay: NAAA acylation in r-NAAA-overexpressing HEK-293 cells; assay type: cell-based; details: HEK-293 cells overexpressing r-NAAA, 10 μM, 1 h
T4 sequence (Q5KTC7 131-362 limits assumed): T1 sequence (Q5KTC7 131-362 limits assumed)
T4 sequence (Q5KTC7 34-130 limits assumed): T1 sequence (Q5KTC7 34-130 limits assumed)

[12] = target: T5, NAAA (Rattus norvegicus, UniProt Q5KTC7); assay: In vivo NAAA acylation in rat lungs; details: rats, intravenous, 10 mg kg^−1
T5 sequence (Q5KTC7 131-362 limits assumed): T1 sequence (Q5KTC7 131-362 limits assumed)
T5 sequence (Q5KTC7 34-130 limits assumed): T1 sequence (Q5KTC7 34-130 limits assumed)

[13] = target: T6, NAAA (Mus musculus, UniProt Q9D7V9); assay: Ex vivo mouse NAAA activity after dosing; assay type: in vivo; details: mice
T6 sequence (Q9D7V9 34-362): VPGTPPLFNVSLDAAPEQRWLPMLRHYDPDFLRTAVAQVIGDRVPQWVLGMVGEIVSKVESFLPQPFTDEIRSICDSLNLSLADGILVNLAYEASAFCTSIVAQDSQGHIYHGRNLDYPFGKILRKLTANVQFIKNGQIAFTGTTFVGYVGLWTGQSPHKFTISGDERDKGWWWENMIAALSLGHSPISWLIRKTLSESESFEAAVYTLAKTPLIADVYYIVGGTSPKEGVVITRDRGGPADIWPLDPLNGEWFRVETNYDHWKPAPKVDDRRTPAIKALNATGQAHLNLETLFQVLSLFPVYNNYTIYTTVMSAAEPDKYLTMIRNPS

[14] = tested on: PEA and OEA levels; assay: PEA and OEA levels in mouse lungs; assay type: in vivo; details: 30 mg kg^−1 oral
[15] = tested on: carrageenan-induced inflammation; assay: Carrageenan-induced inflammation in mice; assay type: in vivo, mouse
[16] = tested on: LPS-activated human macrophages; assay: LPS-activated human monocyte-derived macrophages; assay type: cell-based

Structure (SMILES): O=C(CCc1ccccc1)N[C@H]1COC1=O [Compound 3, N-[(3S)-2-oxo-3-oxetanyl]-3-phenylpropanamide]
- IC50 ([1]; read-out: IC50 for rat NAAA (r-NAAA)): ~0.42 µM

Structure (SMILES): C[C@@H]1OC(=O)[C@@H]1NC(=O)OCCCCCc1ccccc1 [Compound 4]
- IC50 ([1]; read-out: IC50 for r-NAAA): ~0.05 µM
- IC50 [2]: ~0.007 µM
- t1/2 in plasma [3]: < 1 min
- analgesic properties in rodent models [4]: marked analgesic properties

- half-life [5]: < 5 min
- half-life [6]: < 5 min
- IC50 [7]: > 100 µM
- interaction with panel of 28 enzymes [8]: did not interact
- effect on 79 ion channels, membrane transporters and receptors [9]: no significant effect
- Cmax [10]: 1610 ng/mL
- Vd [10]: 3.1 L/kg
- clearance [10]: 139 mL/min/kg
- half-life [10]: ~15 min
- covalent adduct with N-terminal cysteine (Cys131) of NAAA [11]: covalent product
- formation of covalent NAAA adduct in lungs [12]: rapid formation of covalent adduct
- inhibition of NAAA activity in various organs ([13]; intraperitoneal 3–30 mg kg^−1, 2 h): substantial inhibition of NAAA activity
- inhibition of NAAA activity ex vivo ([13]; oral 30 mg kg^−1, 2 h): substantial inhibition of NAAA activity
Structure (SMILES): O=C(N[C@H]1CNC1=O)OCCCCC1CCCCC1 [Compound 6, 4-Cyclohexylbutyl-N-[(S)-2-oxoazetidin-3-yl]carbamate]
- OEA levels in lungs ([14]; carrageenan-challenged mice): markedly increased
- PEA levels in lungs ([14]; carrageenan-challenged mice): markedly increased
- OEA levels in lungs ([14]; naïve mice): no effect
- PEA levels in lungs ([14]; naïve mice): no effect
- anti-inflammatory effects under antagonism of CB1 or CB2 receptors ([15]; AM251 or AM630 1 mg kg^−1 i.p. 30 min before 6): did not prevent the anti-inflammatory effects
- carrageenan-induced TNF-α levels in pleural exudate ([15]; mice, 1–30 mg kg^−1, oral): prevented both responses in a dose-dependent manner
- carrageenan-induced lung tissue myeloperoxidase (MPO) activity ([15]; mice, 1–30 mg kg^−1, oral): prevented both responses in a dose-dependent manner
- LPS-induced expression of iNOS ([16]; CD68+ human macrophages, LPS 100 ng mL^−1, flow cytometry): significant concentration-dependent inhibition
- LPS-induced release of TNF-α ([16]; CD68+ human macrophages, LPS, enzyme-linked immunoassay): significant concentration-dependent inhibition
- LPS-induced TNF-α expression ([16]; human macrophages, LPS, flow cytometry): Concentration-dependent effects

- covalent adduct with N-terminal cysteine (Cys131) of NAAA [11]: only negligible amounts of the adduct
Structure (SMILES): O=C(N[C@@H]1CNC1=O)OCCCCC1CCCCC1 [Compound 7, 4-Cyclohexylbutyl-N-[(R)-2-oxoazetidin-3-yl]carbamate]
- carrageenan-induced TNF-α levels in pleural exudate ([15]; mice, 30 mg kg^−1, oral): no such effect
- carrageenan-induced lung tissue myeloperoxidase (MPO) activity ([15]; mice, 30 mg kg^−1, oral): no such effect

Structure (SMILES): C[C@@H]1C[C@H]2[C@@H]3CCC4=CC(=O)C=C[C@]4(C)[C@@]3(F)[C@@H](O)C[C@]2(C)[C@@]1(O)C(=O)CO [dexamethasone, reference compound]
- carrageenan-induced lung MPO activity, effect relative to maximal effect of 6 ([15]; mice, 0.5 mg kg^−1, intraperitoneal): comparable
